The structures appear in SMILES notation.

The text below walks through data of ChEMBL document CHEMBL1133435, “Syntheses and evaluation of naphthalenyl- and chromenyl-pyrrolyl-benzoic acids as potent and selective retinoic acid receptor alpha agonists” (Bioorg Med Chem Lett, 2000).

Assay [1] addresses T1, Retinoic acid receptor alpha (Homo sapiens) (UniProt P10276).
T1 sequence (whole entry): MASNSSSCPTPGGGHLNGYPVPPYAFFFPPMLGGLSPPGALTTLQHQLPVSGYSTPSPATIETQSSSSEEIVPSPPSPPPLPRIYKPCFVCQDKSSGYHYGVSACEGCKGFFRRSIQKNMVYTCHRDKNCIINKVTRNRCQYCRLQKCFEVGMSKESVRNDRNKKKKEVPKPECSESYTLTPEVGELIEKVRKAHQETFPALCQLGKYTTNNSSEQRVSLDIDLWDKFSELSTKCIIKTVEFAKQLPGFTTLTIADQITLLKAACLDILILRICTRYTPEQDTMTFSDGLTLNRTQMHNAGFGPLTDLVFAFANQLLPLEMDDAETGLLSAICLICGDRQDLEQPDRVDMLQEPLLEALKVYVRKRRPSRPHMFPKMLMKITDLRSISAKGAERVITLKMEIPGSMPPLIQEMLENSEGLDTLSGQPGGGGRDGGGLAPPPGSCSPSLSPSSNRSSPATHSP
The assay is described as follows: Relative transcriptional activation in CV-1 cells expressing RAR alpha receptor compared to ATRA. In kind it is functional, cell-based. The settings on record: Cercopithecidae.

Assay [2] concerns the target T2, Retinoic acid receptor beta (Homo sapiens) (UniProt P10826).
T2 sequence (whole entry): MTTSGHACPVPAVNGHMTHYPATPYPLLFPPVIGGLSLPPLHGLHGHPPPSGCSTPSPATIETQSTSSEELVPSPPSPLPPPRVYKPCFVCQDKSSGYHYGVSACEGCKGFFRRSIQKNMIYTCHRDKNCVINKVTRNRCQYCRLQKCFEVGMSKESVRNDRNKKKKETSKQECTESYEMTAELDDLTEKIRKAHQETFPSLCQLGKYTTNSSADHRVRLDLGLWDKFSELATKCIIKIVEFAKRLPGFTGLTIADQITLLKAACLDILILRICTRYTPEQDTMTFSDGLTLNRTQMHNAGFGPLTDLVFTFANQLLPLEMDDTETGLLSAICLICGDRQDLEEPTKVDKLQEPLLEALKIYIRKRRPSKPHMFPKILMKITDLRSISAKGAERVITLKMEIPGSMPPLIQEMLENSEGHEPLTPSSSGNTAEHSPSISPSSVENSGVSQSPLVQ
Description: Relative transcriptional activation in CV-1 cells expressing RAR beta receptor compared to ATRA. It is filed as functional, cell-based. The note with it: Cercopithecidae.

The target of assay [3] is T1, Retinoic acid receptor alpha (Homo sapiens). The assay is described as follows: Binding affinity for Retinoic acid receptor alpha relative to ATRA.
For another assay, the system named is HL-60. Description: Induction of HL-60 cell differentiation. It is filed as functional. The note with it: Homo sapiens.
The target in assay [4] is T2, Retinoic acid receptor beta (Homo sapiens). Description: Binding affinity for Retinoic acid receptor beta relative to ATRA.
Assay [5] addresses T3, Retinoic acid receptor gamma (Homo sapiens) (UniProt P13631).
T3 sequence (whole entry): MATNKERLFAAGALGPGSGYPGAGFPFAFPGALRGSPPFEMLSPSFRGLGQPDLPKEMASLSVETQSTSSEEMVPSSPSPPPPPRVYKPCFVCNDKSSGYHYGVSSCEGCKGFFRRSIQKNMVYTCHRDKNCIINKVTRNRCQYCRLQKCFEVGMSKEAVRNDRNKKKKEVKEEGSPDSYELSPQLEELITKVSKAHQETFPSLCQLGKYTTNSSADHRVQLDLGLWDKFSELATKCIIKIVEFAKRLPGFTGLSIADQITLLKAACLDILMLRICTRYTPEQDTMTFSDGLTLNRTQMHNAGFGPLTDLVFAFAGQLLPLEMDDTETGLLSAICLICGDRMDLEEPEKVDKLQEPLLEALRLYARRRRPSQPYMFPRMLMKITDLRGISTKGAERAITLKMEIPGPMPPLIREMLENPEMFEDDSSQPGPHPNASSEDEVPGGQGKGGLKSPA
The assay is described as follows: Binding affinity for Retinoic acid receptor gamma relative to ATRA.

Assay [6] deals with T3, Retinoic acid receptor gamma (Homo sapiens). Description: Relative transcriptional activation in CV-1 cells expressing RAR gamma receptor compared to ATRA. In kind it is functional, cell-based. The note with it: Cercopithecidae.
For assay [7], the target named is T2, Retinoic acid receptor beta (Homo sapiens). The settings on record: Cercopithecidae; CV-1.
Description: Transcriptional activation in CV-1 cells expressing RAR beta receptor
Assay [8] deals with T1, Retinoic acid receptor alpha (Homo sapiens). The note with it: Cercopithecidae; CV-1.
Description: Transcriptional activation in CV-1 cells expressing RAR alpha receptor
For assay [9], the target named is T3, Retinoic acid receptor gamma (Homo sapiens). The assay is described as follows: Relative transcriptional activation in CV-1 cells expressing RAR gamma receptor compared to ATRA; Not detectable. It is filed as functional, cell-based. The settings on record: Cercopithecidae.
For assay [10], the target named is T2, Retinoic acid receptor beta (Homo sapiens). Description: Relative transcriptional activation in CV-1 cells expressing RAR beta receptor compared to ATRA; Not detectable. In kind it is functional, cell-based. The settings on record: Cercopithecidae.
The target of assay [11] is T1, Retinoic acid receptor alpha (Homo sapiens). Description: Binding affinity for Retinoic acid receptor alpha relative to ATRA; Not detectable.
The target is the same in assay [12]. The assay is described as follows: Relative transcriptional activation in CV-1 cells expressing RAR alpha receptor compared to ATRA; Not detectable. In kind it is functional, cell-based. The note with it: Cercopithecidae.

With `CC(C)c1cccc2ccc(-c3ccc(-c4ccc(C(=O)O)cc4)[nH]3)cc12`, the values for the Relative EC30 in assay [1], in assay [2] and in [6] were 1.1 nM, 78 nM and 88 nM, respectively. The Relative IC50 in [3] was under 1 nM; in assay [4] it was over 1000 nM; in assay [5] it was 910 nM. Besides, the EC30 (in general, the concentration needed for an effect of 30%) in the assay with HL-60 is 100 nM.
Turning to `CC1=C(/C=C/C(C)=C/C=C/C(C)=C/C(=O)O)C(C)(C)CCC1`, the figures for the EC30 in assay [7] and in assay [8] were 0.69 nM and 1.1 nM, respectively.
Regarding `O=C(O)c1ccc(-c2ccc(-c3ccc4cccc(-c5ccccc5)c4c3)[nH]2)cc1`, the figures for the Relative EC30 in assay [1], in assay [2] and in [9] were over 10000 nM, 880 nM and over 10000 nM, respectively. The values for the Relative IC50 in assay [3], in [4] and in [5] were 1.4 nM, over 1000 nM and over 1000 nM, respectively.
As to `Cc1cccc2ccc(-c3ccc(-c4ccc(C(=O)O)cc4)[nH]3)cc12`, the Relative EC30 in assay [1] was 49 nM; in assay [9] it was over 10000 nM; in assay [10] it was over 10000 nM. For the same compound, the Relative IC50 in [3] is 15 nM; in assay [4] it was over 1000 nM; in assay [5], over 1000 nM.
As for `Cc1ccc(C)c2c1C=C(c1ccc(-c3ccc(C(=O)O)cc3)[nH]1)CO2`, the figures for the Relative EC30 in assay [1], in assay [2] and in assay [6] were 1.8 nM, 240 nM and 3600 nM, respectively. The Relative IC50 was 9.7 nM in assay [3], over 1000 nM in assay [4] and over 1000 nM in [5].
For the compound `Cc1cc(C)c2ccc(-c3ccc(-c4ccc(C(=O)O)cc4)[nH]3)cc2c1`, the Relative EC30 in assay [1] is 90 nM; in [9], over 10000 nM; in assay [10], over 10000 nM. Further, the Relative IC50 in assay [4], in assay [5] and in assay [11] was over 1000 nM throughout.
Consider `Cc1ccc(C)c2cc(-c3ccc(-c4ccc(C(=O)O)cc4)[nH]3)ccc12`, for which the results for the Relative EC30 in [1], in assay [2] and in [6] were 2.8 nM, 250 nM and 2200 nM, respectively. Also, the Relative IC50 in assay [3] is 24 nM; in assay [4], over 1000 nM; in assay [5], over 1000 nM.
Take `CC(/C=C/C=C(\C)c1ccc2c(C)ccc(C)c2c1)=C\C(=O)O`: the Relative EC30 in assay [1] worked out at 20 nM; in assay [2], 11 nM; in assay [6] it was 660 nM. The Relative IC50 in assay [3] came out at 2.7 nM; in [4], 49 nM; in [5], 227 nM.
For the compound `Cc1cccc2c1C=C(c1ccc(-c3ccc(C(=O)O)cc3)[nH]1)CO2`, the values for the Relative EC30 in [1], in assay [2] and in [6] were 4.5 nM, 1030 nM and 5250 nM, respectively. For the same compound, the results for the Relative IC50 in assay [3], in [4] and in assay [5] were 50 nM, over 1000 nM and over 1000 nM, respectively.
Take `Cc1c(C)c(C)c2cc(-c3ccc(-c4ccc(C(=O)O)cc4)[nH]3)ccc2c1C`: the Relative IC50 in assay [4], in assay [5] and in assay [11] was over 1000 nM each time. Also, the Relative EC30 in [12], in assay [9] and in [10] was over 10000 nM in each case.
`CC(/C=C/C=C(\C)c1ccc2c(c1)C(C)(C)CCC2(C)C)=C\C(=O)O`: the figures for the Relative EC30 in assay [1], in assay [2] and in assay [6] were 0.27 nM, 0.2 nM and 0.24 nM, respectively. Further, the Relative IC50 in assay [3] turned out to be 0.49 nM; in [4], 0.34 nM; in assay [5], 0.67 nM.
